Test results reported in paper PMC6105497 (The FEBS journal, 2018).

Legend:
[1] = molecular target: vcFabH1 (Vibrio cholerae serotype O1, UniProt Q9KQH5); test: biochemical; type: biochemical; conditions: for Reaction rate relative to that of acetyl-CoA: pH 7.5
[2] = molecular target: vcFabH2 (C113A) (Vibrio cholerae serotype O1, UniProt Q9KLJ3, C113A); type: binding; conditions: for Binding sites/molecule (Stoichiometry): pH 7.5
[3] = molecular target: vcFabH2 (C356A) (Vibrio cholerae serotype O1, UniProt Q9KLJ3, C356A); type: binding
[4] = molecular target: vcFabH2 (Vibrio cholerae serotype O1, UniProt Q9KLJ3); test: biochemical; type: biochemical

SMILES	Hill coefficient n [1]	Kd [1]	Vmax (maximum activity) [1]	ΔH [2]	ΔS [2]	Binding sites/molecule (Stoichiometry) [2]	Binding sites/molecule (Stoichiometry) [3]	ΔH [3]	ΔS [3]	Reaction rate relative to that of acetyl-CoA [1]	Hill coefficient n [4]	Kd [4]	Vmax (maximum activity) [4]
CC(=O)SCCNC(=O)CCNC(=O)[C@H](O)C(C)(C)COP(=O)(O)OP(=O)(O)OC[C@H]1O[C@@H](n2cnc3c(N)ncnc32)[C@H](O)[C@@H]1OP(=O)(O)O [Acetyl-CoA]	1.6±0.2	21.2 ± 2.9 µM	14.0±1.1 μmol∙min^−1∙μmol^−1	-14.49 kcal/mol	−34.70 cal∙mol^−1∙K^−1	0.69 ± 0.05	–	–	–	–	–	–	–
CCCC(=O)SCCNC(=O)CCNC(=O)[C@H](O)C(C)(C)COP(=O)(O)OP(=O)(O)OC[C@H]1O[C@@H](n2cnc3c(N)ncnc32)[C@H](O)[C@@H]1OP(=O)(O)O [Butyryl-CoA]	–	–	–	-8.259 kcal/mol	−12.00 cal∙mol^−1∙K^−1	0.87 ± 0.03	–	–	–	–	–	–	–
CCCCCCCCCC(=O)SCCNC(=O)CCNC(=O)[C@H](O)C(C)(C)COP(=O)(O)OP(=O)(O)OC[C@H]1O[C@@H](n2cnc3c(N)ncnc32)[C@H](O)[C@@H]1OP(=O)(O)O [Decanoyl-CoA]	–	–	–	-7.457 kcal/mol	−4.24 cal∙mol^−1∙K^−1	1.36 ± 0.01	1	-11.68 kcal/mol	−25.30 cal∙mol^−1∙K^−1	–	–	–	–
CCCCCC(=O)SCCNC(=O)CCNC(=O)[C@H](O)C(C)(C)COP(=O)(O)OP(=O)(O)OC[C@H]1O[C@@H](n2cnc3c(N)ncnc32)[C@H](O)[C@@H]1OP(=O)(O)O [Hexanoyl-CoA]	–	–	–	-11.78 kcal/mol	−22.10 cal∙mol^−1∙K^−1	0.878 ± 0.004	1	-1.847 kcal/mol	8.50 cal∙mol^−1∙K^−1	lower than 20%	–	–	–
CC(C)C(=O)SCCNC(=O)CCNC(=O)[C@H](O)C(C)(C)COP(=O)(O)OP(=O)(O)OC[C@H]1O[C@@H](n2cnc3c(N)ncnc32)[C@H](O)[C@@H]1OP(=O)(O)O [Isobutyryl-CoA]	–	–	–	-8.57 kcal/mol	−13.00 cal∙mol^−1∙K^−1	0.77 ± 0.18	–	–	–	–	–	–	–
CC(C)CC(=O)SCCNC(=O)CCNC(=O)[C@H](O)C(C)(C)COP(=O)(O)OP(=O)(O)OC[C@H]1O[C@@H](n2cnc3c(N)ncnc32)[C@H](O)[C@@H]1OP(=O)(O)O [Isovaleryl-CoA]	–	–	–	-9.347 kcal/mol	−16.20 cal∙mol^−1∙K^−1	0.74 ± 0.03	–	–	–	lower than 20%	–	–	–
CCCCCCCCCCCC(=O)SCCNC(=O)CCNC(=O)[C@H](O)C(C)(C)COP(=O)(O)OP(=O)(O)OC[C@H]1O[C@@H](n2cnc3c(N)ncnc32)[C@H](O)[C@@H]1OP(=O)(O)O [Lauroyl-CoA]	–	–	–	-6.563 kcal/mol	−4.60 cal∙mol^−1∙K^−1	1.38 ± 0.02	–	–	–	–	–	–	–
CCCCCCCC(=O)SCCNC(=O)CCNC(=O)[C@H](O)C(C)(C)COP(=O)(O)OP(=O)(O)OC[C@H]1O[C@@H](n2cnc3c(N)ncnc32)[C@H](O)[C@@H]1OP(=O)(O)O [Octanoyl-CoA]	–	–	–	-12.67 kcal/mol	−22.30 cal∙mol^−1∙K^−1	0.90 ± 0.01	1	-3.414 kcal/mol	4.43 cal∙mol^−1∙K^−1	lower than 20%	1.8±0.2	24.2 ± 2.2 µM	18.0±1.1 μmol∙min^−1∙μmol^−1
